24 compounds from ChEMBL document CHEMBL3813691, “Quantitative relationships between structure and cytotoxic activity of flavonoid derivatives. An application of Hirshfeld surface derived descriptors” (Bioorg Med Chem Lett, 2016) can be followed below.

Tested on in the first series: not listed separately
As to the kind of experiment: Cytotoxicity against human HL60 cells assessed as reduction in cell survival after 46 hrs by MTT assay. The conditions noted are these: HL-60, 46 h. The series is classed as functional, cell-based. (Tetrazolium dyes change colour on reduction, which living cells bring about.)
As a reminder, the IC50 is the point on the concentration scale where inhibition reaches its midpoint. On to `O=C1/C(=C\c2ccccc2)C(c2ccccc2)Oc2ccccc21` (stereo not drawn), for which the IC50 worked out at 33.3 µM.
Still for that read-out and setting: to `Cc1ccc(C2C3C(=NN2C)c2ccccc2OC3c2ccccc2)cc1` (stereo not drawn) belongs 27.8 µM.
Turning to `CN1N=C2c3cc(O)ccc3OC(c3ccccc3)C2C1c1ccccc1` (stereo not drawn), the IC50 came out at 37.7 µM.
Still for that read-out and setting: the result for `Oc1cccc(C2NN=C3c4ccccc4OC(c4ccccc4)C32)c1` (stereo not drawn) reads 50 µM; that for `O=C1c2ccccc2OC(c2ccccc2)C12N=NCC2c1ccc([N+](=O)[O-])cc1` (stereo not drawn), 54.6 µM.
On to `CN1N=C2c3ccccc3OC(c3ccccc3)C2C1c1ccc(Cl)cc1` (stereo not drawn), for which the IC50 turned out to be 7.4 µM.
On the same count and under the same terms, to `COc1ccc(C2C3C(=NN2C)c2ccccc2OC3c2ccccc2)cc1` (stereo not drawn) belongs 541 µM.
Consider `Oc1ccc(C2NN=C3c4ccccc4OC(c4ccccc4)C32)cc1` (stereo not drawn), for which the IC50 amounted to 42 µM.
Same read-out and setting: the result for `CN1N=C2c3ccccc3OC(c3ccccc3)C2C1c1cccc(C#N)c1` (stereo not drawn) reads 65.4 µM.
The same measure, in the same setting: to `CN1N=C2c3ccccc3OC(c3ccccc3)C2C1c1ccc(F)cc1` (stereo not drawn) belongs 97.7 µM; to `CN1N=C2c3ccccc3OC(c3ccccc3)C2C1c1ccc(O)cc1` (stereo not drawn), 47.7 µM; to `c1ccc(C2Oc3ccccc3C3=NNC(c4ccncc4)C32)cc1` (stereo not drawn), 49.7 µM.
On to `CN1N=C2c3ccccc3OC(c3ccccc3)C2C1c1ccc(Br)cc1` (stereo not drawn), for which the IC50 was determined as 7.5 µM.
For the compound `COc1cccc(C2C3C(=NN2C)c2ccccc2OC3c2ccccc2)c1` (stereo not drawn), the IC50 turned out to be 70.3 µM.
In the case of `N#Cc1cccc(C2CN=NC23C(=O)c2ccccc2OC3c2ccccc2)c1` (stereo not drawn), the IC50 was determined as 75 µM.
Same read-out and setting: to `Oc1ccc2c(c1)C1=NNC(c3ccccc3)C1C(c1ccccc1)O2` (stereo not drawn) belongs 27.3 µM; to `CN1N=C2c3ccccc3OC(c3ccccc3)C2C1c1ccc(C#N)cc1` (stereo not drawn), 20.1 µM.
As for `Cc1cccc(C2C3C(=NN2C)c2ccccc2OC3c2ccccc2)c1` (stereo not drawn), the IC50 was found to be 60.5 µM.
Still for that read-out and setting: the result for `CN1N=C2c3ccccc3OC(c3ccccc3)C2C1c1ccccc1` (stereo not drawn) reads 54.1 µM.
In the case of `CN1N=C2c3ccccc3OC(c3ccccc3)C2C1c1cccc(O)c1` (stereo not drawn), the IC50 worked out at 344 µM.
Still for that read-out and setting: the result for `COc1cccc(C2CN=NC23C(=O)c2ccccc2OC3c2ccccc2)c1` (stereo not drawn) reads 74.9 µM.

The subject of the next series is HUVEC. As to the kind of experiment: Cytotoxicity against HUVEC assessed as reduction in cell survival after 46 hrs by MTT assay. The series is classed as cell-based. The note with it: Homo sapiens.
Consider `O=C(/C=C/c1ccccc1Cl)c1ccccc1O`, for which the IC50 was 7.8 µM.
As for `O=C1/C(=C/c2ccc(Cl)cc2)C(c2ccccc2)Oc2ccccc21` (stereo not drawn), the IC50 amounted to 6.9 µM.
The same measure, in the same setting: to `CN1N=C2c3ccccc3OC(c3ccccc3)C2C1c1ccc(Cl)cc1` (stereo not drawn) belongs 70.9 µM; to `CN1N=C2c3ccccc3OC(c3ccccc3)C2C1c1ccc(Br)cc1` (stereo not drawn), 184 µM.

Tested on in the next series: not listed separately
As to the kind of experiment: Selectivity ratio of IC50 for HUVEC to IC50 for human HL60 cells. The series is classed as cell-based, HL-60. The conditions noted are these: HUVEC and HL60 cells, read-out: Ratio IC50.
Consider `CN1N=C2c3ccccc3OC(c3ccccc3)C2C1c1ccc(Cl)cc1` (stereo not drawn), for which the selectivity ratio is 10.
Still for that read-out and setting: to `CN1N=C2c3ccccc3OC(c3ccccc3)C2C1c1ccc(Br)cc1` (stereo not drawn) belongs 25.

Tested on in a further series: not listed separately
As to the kind of experiment: Cytotoxicity against human HL60 cells assessed as reduction in cell survival. The series is classed as functional, cell-based. The conditions noted are these: HL-60.
Consider `COc1cc([C@@H]2c3cc4c(cc3[C@@H](O[C@@H]3O[C@@H]5CO[C@@H](C)O[C@H]5[C@H](O)[C@H]3O)[C@H]3COC(=O)[C@H]23)OCO4)cc(OC)c1O` [ETOPOSIDE], for which the IC50 was 0.025 µM.
